Laboratory results as given in patent EP4806443A1, “ANTICANCER AGENT KIT” (Nihon Trim Co., Ltd., priority 2023, dated 2025).

Key:
Format in all cases: cell-based, Human
[1] = tested on: HeLa cells expressing a GFP-LC3-RFP-LC3ΔG probe; assay: Autophagic activity based on GFP/RFP ratio (flow cytometry), HeLa
Method: Then, the cells were detached and suspended, and the fluorescence intensities of GFP and RFP were analyzed by flow cytometry. The autophagic activity was quantitatively analyzed by determining the GFP/RFP ratio.
A1-containing filtered-water medium) containing 200 nM Baf.
The GFP-LC3-RFP-LC3ΔG probe (or a GFP-LC3-RFP probe described later) is described in, for example, the following paper. The GFP-LC3-RFP-LC3ΔG probe (or GFP-LC3-RFP probe) is cleaved by ATG4, and the same number of GFP-LC3 and RFP-LC3ΔG (or RFP) are produced in the cytoplasm. GFP-LC3 is localized in the autophagosomes, and then quenched and degraded in the autolysosomes. RFP-LC3ΔG (or RFP) remains in the cytoplasm and serves as an internal control reflecting the amount of GFP-LC3. The GFP/RFP ratio is obtained by quantifying the cumulative amount of degradation of GFP-LC3 by autophagy. A decrease in the GFP/RFP ratio indicates autophagy activation. An increase in the GFP/RFP ratio indicates autophagy inhibition. […]
(§1) Then, the cells were detached and suspended in the same manner as described in the section (2-3), and the fluorescence intensities of GFP and RFP were analyzed by flow cytometry. The autophagic activity was quantitatively analyzed by determining the GFP/RFP ratio.

[2] = tested on: HeLa cells in which ATG7 (autophagy-related gene) was knocked out (ATG7 KO); assay: Cell growth inhibitory effect (Cell Counting Kit-8), HeLa ATG7 KO; conditions: 24 hours
Method: The results are shown in FIGS. 8 (ATG7 WT) and 9 (ATG7 KO).
FIGS. 20 and 21 show the results.
In FIGS. 20 and 21, HW represents DMEM (produced hydrogen water medium) containing produced hydrogen water with a dissolved hydrogen concentration of 0 ppm to 4 ppm, and HW + DOX represents the DMEM (produced hydrogen water medium) to which 0.5 µM doxorubicin was added.
The results are shown in FIGS. 26 (ATG7 WT) and 27 (ATG7 KO).

[3] = tested on: HeLa cells in which ATG7 was knocked out (ATG7 KO); assay: Apoptosis induction (Cell Death Detection […]), HeLa ATG7 KO; conditions: doxorubicin 1 or 2 µM, 24 hours; ATG7 KO compared with ATG7 WT (FIG. 7)
Method: Apoptosis induction was assessed using Cell Death Detection [sequence] (Roche Diagnostics, Basel, Switzerland) according to the manual. HeLa cells (ATG7 WT) or HeLa cells in which ATG7 was knocked out (ATG7 KO) were seeded into a 12-well plate at 1.0 × 10^5 cells/well and cultured (precultured) in DMEM under the conditions of 37°C and 5% CO2 for 24 hours. After the preculture, the medium was exchanged with DMEM supplemented with an anticancer agent containing doxorubicin at a predetermined concentration (1 or 2 µM), and the cells were cultured for 24 hours. The cells were then lysed with a lysis buffer, and the lysate was added to each well of the ELISA plate, incubated with an immunological reagent buffer containing anti-histone biotin and anti-DNA POD for 2 hours, and washed with an incubation buffer. Then, the resultant was reacted with 100 µL of an ABTS substrate buffer, and the absorbance was measured at 405 nm and 490 nm.
Apoptosis induction was assessed using Cell Death Detection [sequence] (Roche Diagnostics, Basel, Switzerland) according to the manual. […] Then, the resultant was reacted with 100 µL of an ABTS substrate buffer, and the absorbance was measured at 405 nm and 490 nm.

Caco-2 cells = assay: Cell growth inhibitory effect (Cell Counting Kit-8), Caco-2; conditions: doxorubicin 1, 2, or 4 µM in serum-free medium (autophagy activating conditions), 24 hours (FIG. 12)
Method: FIGS. 12 to 15 show the results.
In FIG. 12, DOX + serum free represents DMEM with no serum (serum-free medium) to which doxorubicin was added at a predetermined concentration (1, 2, or 4 µM), DOX represents serum-containing DMEM with doxorubicin added at a predetermined concentration, and DOX + Baf. represents a medium (Baf. A1-containing medium) containing 200 nM Bafilomycin A1 (Baf. A1) dissolved in serum-containing DMEM, to which doxorubicin was added at the predetermined concentration.
In FIG. 15, FW (Medium + Baf. A1) represents a medium (Baf. A1-containing filtered-water medium) containing 200 nM Baf.

[4] = tested on: HCT116 cells expressing the GFP-LC3-RFP probe; assay: Autophagic activity based on GFP/RFP ratio (flow cytometry), HCT116; conditions: fluorouracil 1 or 10 µM, 24 hours (FIG. 25)
Method: as §1

For `COc1cccc2c1C(=O)c1c(O)c3c(c(O)c1C2=O)C[C@@](O)(C(=O)CO)C[C@@H]3O[C@H]1C[C@H](N)[C@H](O)[C@H](C)O1` [doxorubicin], the GFP/RFP ratio ([1]; doxorubicin 1, 2, or 4 µM, 4 hours, a decrease indicates autophagy activation (FIG. 5)) was “decreased as the doxorubicin concentration increased”, the “cell growth inhibitory effect” value ([2]; doxorubicin 1, 2, or 4 µM, ATG7 KO compared with ATG7 WT (FIG. 6)) was “enhanced” and the apoptosis induction [3] was “enhanced”. For the same molecule, the “cell growth inhibitory effect of doxorubicin” value (Caco-2 cells) was “rather reduced”.
With `CC(=O)O[C@H]1C(=O)[C@@]2(C)[C@H]([C@H](OC(=O)c3ccccc3)[C@]3(O)C[C@H](OC(=O)[C@H](O)[C@@H](NC(=O)c4ccccc4)c4ccccc4)C(C)=C1C3(C)C)[C@]1(OC(C)=O)CO[C@@H]1C[C@@H]2O` [paclitaxel] the GFP/RFP ratio ([1]; paclitaxel 1, 5, or 10 nM, 24 hours (FIG. 23)) was “decreased as the paclitaxel concentration increased” and the “anticancer effect (cell growth inhibitory effect)” value ([2]; paclitaxel 1, 10, or 50 nM, ATG7 KO compared with ATG7 WT (FIG. 24)) was “enhanced”.
In the case of `O=c1[nH]cc(F)c(=O)[nH]1` [fluorouracil], the GFP/RFP ratio [4] is reported as “decreased as the fluorouracil concentration increased”.
